In this assay the target is T1, M.HhaI-Q82A/N304A (Haemophilus parahaemolyticus, UniProt P05102, N304A/Q82A).
T1 construct: made in house
Briefly: Modification of cytosine-C5 in duplex oligodeoxynucleotide III.IV by M.HhaI-Q82A/N304A, nucleoside analysis by HPLC/ESI-MS. The class given is biochemical. Particulars: duplex III.IV 10 μM, cofactor 300 μM, enzyme 12.5 μM, 37° C. over night. How it is done:
After enzymatic transfer the duplex oligodeoxy-nucleotides were enzymatically fragmented and the resulting modified nucleosides were analyzed by reversed-phase HPLC coupled with ESI-MS.
Therefore, the codon for N304 was changed to a codon for alanine by standard Megaprimer PCR mutagenesis (Sambrook and Russell, (2001) Cold Spring Harbor Laboratory Press, 13.31-13.35) and the fragment containing this mutation was cloned into the plasmid containing the Q82A mutation (Example 2B, Example 3B.2. The correct DNA sequence of the complete gene was verified by DNA sequencing. Expression and purification of the Q82A/N304A variant was performed as described for the wild-type enzyme (Kumar et al., (1992) Biochemistry 31, 8648-8653; Klimasauskas et al., (1998) EMBO J. 17, 317-324). The presence of the amino acid substitution was verified by mass spectrometric analysis of purified M.HhaI-Q82A/N304A.
The duplex oligodeoxynucleotide III.IV (compare Scheme 6, Example 2B) was produced by mixing equal molar amounts (2.5 nmol) of complementary single-stranded oligodeoxynucleotide III (5′-[…] CTAT-3′) (SEQ ID NO. 3) and IV (5′-[…]-3′) (SEQ. ID NO. 4) in water, heating at 85° C. for 5 min and slow cooling to room temperature. […] The solution was heated to 80° C. for 10 min, supplemented with Proteinase K and incubated at 55° C. for 2 h. […]

Experimental findings from US8008007B2, “S-adenosyl-L-methionine analogs with extended activated groups for transfer by methyltransferases” (RWTH Aachen, priority 2005, dated 2011) are described below.

SMILES strings stand for the structures.

T1 sequence (P05102 whole entry Q82A/N304A): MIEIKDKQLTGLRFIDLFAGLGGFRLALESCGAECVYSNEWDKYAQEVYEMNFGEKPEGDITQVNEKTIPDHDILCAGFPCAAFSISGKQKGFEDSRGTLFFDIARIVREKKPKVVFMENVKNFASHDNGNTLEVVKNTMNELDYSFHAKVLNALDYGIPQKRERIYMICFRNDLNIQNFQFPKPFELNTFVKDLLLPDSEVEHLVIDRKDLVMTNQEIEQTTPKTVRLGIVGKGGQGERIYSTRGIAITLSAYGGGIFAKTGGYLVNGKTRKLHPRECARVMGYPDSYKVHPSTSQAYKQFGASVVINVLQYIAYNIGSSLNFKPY

Consider `NCCCC(=O)NCC#CC[S+](CCC(N)C(=O)O)CC1OC(n2cnc3c(N)ncnc32)C(O)C1O` (stereo not shown) [Cofactor 10], for which the “cofactor function for M.HhaI-Q82A/N304A (transfer of group Z-R to cytosine-C5)” value is “functions as a cofactor”.
